Measurements: ChEMBL document CHEMBL1201862, “PubChem BioAssay data set” (2004)
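How tested: cells in 96-well plates exposed to compound for 48 hours at five concentrations. Abbreviation: GI50, concentration required for 50% inhibition of growth.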 Activity calls are given as the source filed them. No stated cut-off is given here; in the data, active = GI50 up to about 1.1 µM and inactive = higher.

Legend:
Experiment in all cases: NCI tumour cell line growth inhibition, 48 h
UACC-62 = test system: UACC-62
ACHN = test system: ACHN
SN12C = test system: SN12C
NCI-H522 = test system: NCI-H522
CCRF-CEM = test system: CCRF-CEM
A498 = test system: A498
K562 = test system: K562
SF-539 = test system: SF-539
HOP-62 = test system: HOP-62
OVCAR-3 = test system: OVCAR-3
OVCAR-4 = test system: OVCAR-4
SK-MEL-28 = test system: SK-MEL-28
MOLT-4 = test system: MOLT-4
UO-31 = test system: UO-31
SK-MEL-2 = test system: SK-MEL-2
LOX IMVI = test system: LOX IMVI
EKVX = test system: EKVX

Measured: GI50

Nc1ccccc1N
inactive: UACC-62 > 100 µM | ACHN > 100 µM | SN12C > 100 µM | NCI-H522 15.5 µM | CCRF-CEM 21.1 µM | A498 > 100 µM | K562 > 100 µM | SF-539 > 100 µM | HOP-62 > 100 µM | OVCAR-3 > 100 µM | OVCAR-4 > 100 µM | SK-MEL-28 > 100 µM | MOLT-4 36.7 µM | UO-31 > 100 µM | SK-MEL-2 > 100 µM | LOX IMVI > 100 µM

CCN(CC)CC(C(C)=O)C(c1ccccc1)c1c(O)c2ccccc2oc1=O (configuration not stated)
inactive: UACC-62 > 100 µM | EKVX > 100 µM | ACHN > 100 µM | SN12C > 100 µM | NCI-H522 > 100 µM | CCRF-CEM > 100 µM | A498 > 100 µM | K562 > 100 µM | SF-539 > 100 µM | HOP-62 > 100 µM | OVCAR-3 > 100 µM | OVCAR-4 > 100 µM | SK-MEL-28 > 100 µM | MOLT-4 > 100 µM | UO-31 > 100 µM | SK-MEL-2 > 100 µM | LOX IMVI > 100 µM

COc1ccc(NC(=O)CC/C(CC(=O)c2ccco2)=N/Nc2ccc([N+](=O)[O-])cc2[N+](=O)[O-])cc1
inactive: UACC-62 34.4 µM | EKVX > 100 µM | ACHN > 100 µM | SN12C > 100 µM | NCI-H522 55 µM | CCRF-CEM 23.7 µM | A498 > 100 µM | K562 32 µM | SF-539 > 100 µM | HOP-62 > 100 µM | OVCAR-3 42.6 µM | OVCAR-4 96.2 µM | SK-MEL-28 > 100 µM | MOLT-4 29.3 µM | UO-31 > 100 µM | SK-MEL-2 72.1 µM | LOX IMVI 39.7 µM

O=C(CCc1nnc2s/c(=C\c3ccccc3)c(=O)n12)Nc1cc(Cl)ccc1Cl
inactive: UACC-62 > 100 µM | EKVX > 100 µM | ACHN > 100 µM | SN12C > 100 µM | NCI-H522 > 100 µM | CCRF-CEM > 100 µM | A498 > 100 µM | K562 > 100 µM | SF-539 > 100 µM | HOP-62 > 100 µM | OVCAR-3 > 100 µM | OVCAR-4 > 100 µM | SK-MEL-28 > 100 µM | MOLT-4 > 100 µM | UO-31 > 100 µM | SK-MEL-2 > 100 µM | LOX IMVI > 100 µM

Cc1cc(Cl)cc2c1NC(=O)C2=O.O=C(c1ccccc1)C(F)(F)F
inactive: UACC-62 19.9 µM | EKVX 49 µM | ACHN 75.7 µM | SN12C 54 µM | NCI-H522 24.7 µM | CCRF-CEM 17.2 µM | A498 > 100 µM | K562 32.4 µM | SF-539 47.9 µM | HOP-62 > 100 µM | OVCAR-3 35.3 µM | OVCAR-4 33 µM | SK-MEL-28 93.1 µM | MOLT-4 20.1 µM | UO-31 91.6 µM | SK-MEL-2 36 µM | LOX IMVI 15.3 µM

N#CC12CC3(CCC1CCC1(C2)OCCO1)OCCO3 (configuration not stated)
inactive: UACC-62 > 100 µM | EKVX > 100 µM | ACHN > 100 µM | SN12C > 100 µM | NCI-H522 > 100 µM | CCRF-CEM > 100 µM | A498 > 100 µM | K562 > 100 µM | SF-539 > 100 µM | HOP-62 > 100 µM | OVCAR-3 > 100 µM | OVCAR-4 > 100 µM | SK-MEL-28 > 100 µM | MOLT-4 > 100 µM | UO-31 > 100 µM | SK-MEL-2 > 100 µM | LOX IMVI > 100 µM

C=CCN(N=O)C(=O)ON1C(=O)CCC1=O
inactive: UACC-62 > 100 µM | EKVX > 100 µM | ACHN > 100 µM | SN12C > 100 µM | NCI-H522 64.7 µM | CCRF-CEM 85.9 µM | A498 > 100 µM | K562 > 100 µM | SF-539 > 100 µM | HOP-62 > 100 µM | OVCAR-3 > 100 µM | OVCAR-4 > 100 µM | SK-MEL-28 > 100 µM | MOLT-4 > 100 µM | UO-31 > 100 µM | SK-MEL-2 > 100 µM | LOX IMVI > 100 µM

COc1cc(CC(=O)c2ccc3c(c2)OCO3)cc(OC)c1OC
inactive: UACC-62 > 100 µM | EKVX > 100 µM | ACHN > 100 µM | SN12C > 100 µM | NCI-H522 > 100 µM | CCRF-CEM > 100 µM | A498 > 100 µM | K562 93.5 µM | SF-539 > 100 µM | HOP-62 > 100 µM | OVCAR-3 > 100 µM | OVCAR-4 > 100 µM | SK-MEL-28 > 100 µM | MOLT-4 > 100 µM | UO-31 > 100 µM | SK-MEL-2 > 100 µM | LOX IMVI > 10 µM

c1ccc(/N=C2\c3ccccc3C3=NCCCN32)cc1
inactive: UACC-62 61.5 µM | EKVX 30.6 µM | ACHN 29.4 µM | SN12C > 100 µM | NCI-H522 18.1 µM | CCRF-CEM 61.1 µM | A498 43.2 µM | K562 29.2 µM | SF-539 49.3 µM | HOP-62 67.6 µM | OVCAR-3 75 µM | OVCAR-4 42.2 µM | SK-MEL-28 > 100 µM | MOLT-4 39.4 µM | UO-31 29.2 µM | SK-MEL-2 86.5 µM | LOX IMVI 47.1 µM
